The supplement of paper PMC10307832

Key:
Assay in all cases: relative viability (nuclei count vs DMSO), 5 days (fraction); higher = more cells survive
[1] = compound: Cc1nc(Nc2ncc(C(=O)Nc3c(C)cccc3Cl)s2)cc(N2CCN(CCO)CC2)n1 [Dasatinib] + CC1(C)CCC(c2ccc(Cl)cc2)=C(CN2CCN(c3ccc(C(=O)NS(=O)(=O)c4ccc(N[C@H](CCN5CCOCC5)CSc5ccccc5)c(S(=O)(=O)C(F)(F)F)c4)cc3)CC2)C1 [Navitoclax] (partner 0.5 µM)
Procedure, shortened: (§1)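 Lung cancer cell lines, seeded in 1536-well plates, were treated the following day by pin tool with a single drug or with five library-drug doses (not always all listed) in √10 steps on top of a fixed anchor-drug dose. Cells were fixed and nuclei stained in one step after 5 days, and nuclei were counted. Relative viability is the nuclei count for treated wells divided by that for vehicle wells, reported as medians of duplicate plates.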

[2] = compound: C1CC1C(=O)NC2=NNC3=C2C=CC(=C3)C4=CC(=CC=C4)C(=O)NC5CC5 [XMD13-2] + O=C(CCCCCCC(=O)Nc1ccccc1)NO [Vorinostat] (partner 1 µM)
Procedure, shortened: as §1

[3] = compound: C1CC1C(=O)NC2=NNC3=C2C=CC(=C3)C4=CC(=CC=C4)C(=O)NC5CC5 [XMD13-2] + COc1cc2c(Oc3ccc(NC(=O)C4(C(=O)Nc5ccc(F)cc5)CC4)cc3F)ccnc2cc1OCCCN1CCOCC1 [Foretinib] (partner 0.25 µM)
Procedure, shortened: as §1

[4] = compound: Cc1nc(Nc2ncc(C(=O)Nc3c(C)cccc3Cl)s2)cc(N2CCN(CCO)CC2)n1 [Dasatinib] + CC(=O)c1c(C)c2cnc(Nc3ccc(N4CCNCC4)cn3)nc2n(C2CCCC2)c1=O [Palbociclib] (partner 0.5 µM)
Procedure, shortened: as §1

| Cell Line | relative viability ([1]; first compound 0.005 µM) | relative viability ([1]; first compound 0.01581 µM) | relative viability ([1]; first compound 0.05 µM) | relative viability ([1]; first compound 0.1581 µM) | relative viability ([1]; first compound 0.5 µM) | relative viability ([2]; first compound 0.05 µM) | relative viability ([2]; first compound 0.1581 µM) | relative viability ([2]; first compound 0.5 µM) | relative viability ([2]; first compound 5 µM) | relative viability ([3]; first compound 0.05 µM) | relative viability ([3]; first compound 0.1581 µM) | relative viability ([3]; first compound 0.5 µM) | relative viability ([3]; first compound 1.581 µM) | relative viability ([3]; first compound 5 µM) | relative viability ([4]; first compound 0.005 µM) | relative viability ([4]; first compound 0.01581 µM) | relative viability ([4]; first compound 0.05 µM) | relative viability ([4]; first compound 0.1581 µM) | relative viability ([4]; first compound 0.5 µM) | relative viability ([2]; first compound 1.581 µM) |
| --- | --- | --- | --- | --- | --- | --- | --- | --- | --- | --- | --- | --- | --- | --- | --- | --- | --- | --- | --- | --- |
| NCI-H2405 | 0.684 | 0.424 | 0.254 | 0.165 | 0.116 | 1.08 | 0.934 | 1.04 | 0.965 | 1.09 | 1 | 1.09 | 1.06 | 1.04 | 0.498 | 0.374 | 0.3 | 0.219 | 0.186 | – |
| NCI-H3122 | 1.03 | 1.01 | 1.04 | 0.977 | 0.792 | 1.04 | 0.987 | 1.1 | 0.941 | 0.966 | 0.949 | 1.05 | 0.977 | 0.939 | 0.201 | 0.214 | 0.207 | 0.239 | 0.131 | 0.995 |
| PC-3 [JPC-3] | 0.785 | 0.818 | 0.951 | 0.788 | 0.456 | 0.804 | 0.857 | 0.916 | 0.734 | 1.02 | 1.02 | 1.05 | 0.999 | 0.989 | 0.593 | 0.534 | 0.607 | 0.568 | 0.465 | – |
| PC-14 | 0.976 | 0.982 | 1.09 | 0.647 | 0.0883 | 0.951 | 0.934 | 0.749 | 0.975 | 1.04 | 0.947 | 0.981 | 0.995 | 0.976 | 0.561 | 0.502 | 0.427 | 0.221 | 0.0393 | 0.825 |
| RERF-LC-KJ | 1.11 | 0.537 | 0.855 | 0.669 | 0.656 | 0.783 | 0.653 | 0.686 | 0.806 | 0.871 | 0.869 | 0.87 | 0.795 | 0.844 | 1.08 | 0.994 | 1.11 | 0.782 | 0.81 | 0.616 |
| SK-LU-1 | 0.812 | 0.57 | 0.301 | 0.226 | 0.154 | 0.874 | 0.831 | 0.959 | 0.74 | 1.04 | 0.854 | 0.933 | 0.81 | 0.697 | 0.34 | 0.228 | 0.241 | 0.207 | 0.189 | 0.719 |
| SK-MES-1 | 1.18 | – | 1.41 | 0.802 | 0.429 | 1.16 | 1.09 | 1.07 | 1.31 | 0.866 | 0.967 | 1.06 | 0.87 | 1.15 | 0.353 | 0.358 | 0.269 | 0.187 | 0.154 | 1.03 |
| SW 1573 | 0.906 | 0.899 | 0.946 | 0.473 | 0.481 | 0.786 | 0.625 | 0.853 | 0.385 | 1.01 | 0.832 | 0.984 | 0.841 | 0.733 | 0.36 | – | 0.295 | 0.182 | 0.208 | 0.844 |
